Source: paper PMC5590477, “Biotinylated N-Acetyllactosamine- and N,N-Diacetyllactosamine-Based Oligosaccharides as Novel Ligands for Human Galectin-3” (Bioengineering, 2017)
Values joined by “and” are separate entries in the source; they are usually repeats but may differ in a detail not shown here. Identical values can stand only once. Each block holds one compound with its values, some of them ahead of it.

Key:
human His6Gal-3 [1] = molecular target: T1, human His6Gal-3 (Homo sapiens, UniProt P17931); test: Competitive inhibition of Gal-3 binding to immobilized asialofetuin (ASF), ELISA-type; conditions: for IC50: inhibition of Gal-3 binding to immobilized ASF (5 pmol), 1 h in PBS; for Relative Potency: from IC50, relative to free tetrasaccharide 6 (13 series) or 7 (14 series); for Relative Potency per Glycan: inhibitory potency per glycan, relative to 6 (13 series) or 7 (14 series)
T1 construct: made in house; host or cells: Escherichia coli Rosetta (DE3) pLysS
Description: Neo-glycoproteins 13b, 13d, 13e and 14b, 14d, 14e, as well as glycans 1, 2, 6 and 7 were used in a competitive inhibition assay. Asialofetuin (ASF, 5 pmol in PBS) as the standard glycoprotein was immobilized overnight in microtiter plates (MaxiSorp, Nunc). After blocking as described before, different concentrations of inhibitor and His6Gal-3 were simultaneously incubated for one hour in PBS. Residual bound galectin was detected as described above. Evaluation of the measured data was done using Sigma Plot. All assays were reproduced in at least three independent measurements.

human His6Gal-3 [2] = molecular target: T1, human His6Gal-3; test: ELISA-type binding of Gal-3 to immobilized glycans and neo-glycoproteins; conditions: for Gal-3 binding to immobilized tetrasaccharide (in words): glycan (5 nmol) immobilized on aminoreactive surface; for selectivity for Gal-3 binding compared with Gal-1 (in words): immobilized glycans, 1 µM protein concentration
Description: (§1) The synthesized glycans and neo-glycoproteins were analyzed for binding of Gal-3 and Gal-1 in 96-well microtiter plate formats. Glycans 11 and 12, as well as the corresponding LacNAc-LacNAc-linker-NH2 1a and LacdiNAc-LacNAc-linker-NH2 2a (deprotected forms of 1 and 2) were immobilized via the amino group in aminoreactive microtiter plates (Immobilizer Amino, Nunc, Wiesbaden, Germany). The immobilization of 5 nmol glycan in sodium carbonate buffer (100 mM, pH 9.6) was done overnight. For immobilizing neo-glycoproteins, 5 pmol protein were incubated in PBS (pH 7.5) in MaxiSorp microtiter plates (Nunc) overnight. Wells were then washed with PBS-Tween (0.05% (v/v)) and blocked with 2% BSA in PBS followed by incubation for one hour with galectins diluted in EPBS. Incubation with anti-His6-peroxidase (Roche) was done subsequently. Microtiter plates were read out at 495 nm after conversion of OPD substrate (o-phenylenediamine, Dako, Hamburg, Germany). Measured data were analyzed using Sigma Plot (Systat software GmbH, Erkrath, Germany).

human His6Gal-1C2S = molecular target: T2, human His6Gal-1C2S (Homo sapiens, UniProt P09382, C3S); test: ELISA-type binding of Gal-1 to immobilized glycans and neo-glycoproteins; conditions: 1 µM Gal-1, immobilized ligand 5 pmol per well
T2 construct: made in house; host or cells: Escherichia coli Rosetta (DE3) pLysS
Description: as §1

human His6Gal-3 [3] = molecular target: T1, human His6Gal-3; test: Surface plasmon resonance with immobilized Gal-3; type: binding; conditions: SPR, ligand in flow (20 µL/min) over immobilized Gal-3, one concentration, fit with Scrubber2; read-out: Apparent KD
Description: SPR spectroscopy was done with Reichert SR7500DC System (XanTec bioanalytics, Düsseldorf, Germany) and carboxymethyldextran hydrogel sensor chips complexed with Ni^2+ ions (200M, XanTec bioanalytics). These surfaces allow reversible immobilization of His6-tagged proteins. Human His6Gal-3 (5 pmol in EPBS) was immobilized on the sample channel with a flowrate of 10 µL/min after 5 mM NiCl2 solution was injected. The reference channel stayed untreated.
The binding experiments were carried out with a flow rate of 20 µL/min by injecting neo-glycoproteins 13a–f and 14a–f (2 pmol in PBS) and recently synthesized neo-glycoproteins 15a–f and 16a–f (2 pmol in PBS), as well as BSA and ASF as the control. The dissociation time was three minutes. Between the measurements, the surface was regenerated with 0.5 M Na EDTA (pH 8.5) to remove Ni^2+ together with Gal-3. Each cycle started with NiCl2 followed by Gal-3 application.
The measured data were subtracted by reference values and analyzed using Integrated SPRAutolink (Reichert technologies, Depew, NY, USA) and Scrubber2 (version 2.0c, BioLogic Software, Campbell ACT, Australia).

T1 sequence (P17931 whole entry): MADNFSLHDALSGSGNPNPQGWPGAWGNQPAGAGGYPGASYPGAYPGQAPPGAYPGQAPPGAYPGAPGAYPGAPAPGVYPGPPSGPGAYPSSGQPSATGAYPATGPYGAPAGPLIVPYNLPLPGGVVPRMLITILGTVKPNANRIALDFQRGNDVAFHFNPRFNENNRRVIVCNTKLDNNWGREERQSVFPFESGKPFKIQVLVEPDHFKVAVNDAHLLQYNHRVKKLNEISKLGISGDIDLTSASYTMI
T2 sequence (P09382 whole entry C3S): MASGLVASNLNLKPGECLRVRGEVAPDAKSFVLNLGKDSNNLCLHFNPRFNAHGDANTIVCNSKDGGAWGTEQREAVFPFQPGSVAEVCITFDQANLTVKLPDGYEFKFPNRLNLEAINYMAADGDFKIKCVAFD

Compound: CC(=O)N[C@@H]1[C@@H](O)[C@H](O[C@@H]2O[C@H](CO)[C@H](O)[C@H](O[C@@H]3O[C@H](CO)[C@@H](O[C@@H]4O[C@H](CO)[C@H](O)[C@H](O)[C@H]4O)[C@H](O)[C@H]3NC(C)=O)[C@H]2O)[C@@H](CO)O[C@H]1NC(=S)NCCNC(=O)OC(C)(C)C [Compound 1, LacNAc-LacNAc-linker-NH2-tBoc]
- IC50 (human His6Gal-3 [1]): 14 µM

Compound: CC(=O)N[C@@H]1[C@@H](O)[C@H](O[C@@H]2O[C@H](CO)[C@H](O)[C@H](O[C@@H]3O[C@H](CO)[C@@H](O[C@@H]4O[C@H](CO)[C@H](O)[C@H](O)[C@H]4NC(C)=O)[C@H](O)[C@H]3NC(C)=O)[C@H]2O)[C@@H](CO)O[C@H]1NC(=S)NCCNC(=O)OC(C)(C)C [Compound 2, LacdiNAc-LacNAc-linker-NH2-tBoc]
- IC50 (human His6Gal-3 [1]): ~8 µM

Compound: ASF: Asialofetuin, standard glycoprotein having nine N-glycosidic bound LacNAc units [reference compound]
- Binding signal Galectin-3 (human His6Gal-3 [2]; 1 µM Gal-3, immobilized ligand 5 pmol per well): 0.38 ± 0.10
- Kd (human His6Gal-3 [2]; Gal-3 concentration at half-maximal binding to immobilized ligand (5 pmol), one site saturation fit, read-out: Apparent Kd): 1.26 ± 0.25 µM
- Relative Potency (human His6Gal-3 [2]; from apparent Kd, in relation to ASF): 1.00 ± 0.20
- Relative Potency per Glycan (human His6Gal-3 [2]; from apparent Kd, in relation to ASF, per glycan): 0.11 ± 0.02
- Binding signal Galectin-1 (human His6Gal-1C2S): 0.40 ± 0.07
- Kd (human His6Gal-3 [3]): 0.075 ± 0.002 µM

Compound: LacNAc-LacNAc-linker-NH2 [Compound 1a]
- Gal-3 binding to immobilized tetrasaccharide (in words) (human His6Gal-3 [2]): rather weak

Compound: LacdiNAc-LacNAc-linker-NH2 [Compound 2a]
- Gal-3 binding to immobilized tetrasaccharide (in words) (human His6Gal-3 [2]): essentially no binding

Now from value to compound:

- Relative Potency (human His6Gal-3 [1]): 1.0 ± 0.1
- IC50 (human His6Gal-3 [1]): 14 µM and 14.8 µM
- Relative Potency per Glycan (human His6Gal-3 [1]): 1.0 ± 0.1
Compound: CC(=O)N[C@@H]1[C@@H](O)[C@H](O[C@@H]2O[C@H](CO)[C@H](O)[C@H](O[C@@H]3O[C@H](CO)[C@@H](O[C@@H]4O[C@H](CNNC(=O)CCCCCNC(=O)CCCC[C@@H]5SCC6NC(=O)NC65)[C@H](O)[C@H](O)[C@H]4O)[C@H](O)[C@H]3NC(C)=O)[C@H]2O)[C@@H](CO)O[C@H]1NC(=S)NCCNC(=O)OC(C)(C)C (some centres unmarked) [Compound 6, 6-biotin LacNAc-LacNAc-linker-NH2-tBoc]

- Relative Potency (human His6Gal-3 [1]): 1.0 ± 0.2
- IC50 (human His6Gal-3 [1]): 7.66 ± 1.24 µM
- Relative Potency per Glycan (human His6Gal-3 [1]): 1.0 ± 0.2
Compound: CC(=O)N[C@@H]1[C@@H](O)[C@H](O[C@@H]2O[C@H](CO)[C@H](O)[C@H](O[C@@H]3O[C@H](CO)[C@@H](O[C@@H]4O[C@H](CNNC(=O)CCCCCNC(=O)CCCC[C@@H]5SCC6NC(=O)NC65)[C@H](O)[C@H](O)[C@H]4NC(C)=O)[C@H](O)[C@H]3NC(C)=O)[C@H]2O)[C@@H](CO)O[C@H]1NC(=S)NCCNC(=O)OC(C)(C)C (some centres unmarked) [Compound 7, 6-biotin LacdiNAc-LacNAc-linker-NH2-tBoc]

- Gal-3 binding to immobilized tetrasaccharide (in words) (human His6Gal-3 [2]): high binding signals
- selectivity for Gal-3 binding compared with Gal-1 (in words) (human His6Gal-3 [2]): high selectivity
Compound: CC(=O)N[C@@H]1[C@@H](O)[C@H](O[C@@H]2O[C@H](CO)[C@H](O)[C@H](O[C@@H]3O[C@H](CO)[C@@H](O[C@@H]4O[C@H](CNNC(=O)CCCCCNC(=O)CCCC[C@@H]5SCC6NC(=O)NC65)[C@H](O)[C@H](O)[C@H]4O)[C@H](O)[C@H]3NC(C)=O)[C@H]2O)[C@@H](CO)O[C@H]1NC(=S)NCCN (some centres unmarked) [Compound 8]

- Gal-3 binding to immobilized tetrasaccharide (in words) (human His6Gal-3 [2]): highest binding
- selectivity for Gal-3 binding compared with Gal-1 (in words) (human His6Gal-3 [2]): high selectivity
Compound: CC(=O)N[C@@H]1[C@@H](O)[C@H](O[C@@H]2O[C@H](CO)[C@H](O)[C@H](O[C@@H]3O[C@H](CO)[C@@H](O[C@@H]4O[C@H](CNNC(=O)CCCCCNC(=O)CCCC[C@@H]5SCC6NC(=O)NC65)[C@H](O)[C@H](O)[C@H]4NC(C)=O)[C@H](O)[C@H]3NC(C)=O)[C@H]2O)[C@@H](CO)O[C@H]1NC(=S)NCCN (some centres unmarked) [Compound 9]
